PubChem BioAssay (NCI)
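These data come from cells grown in 96-well plates and exposed to compound for 48 hours at five concentrations. The concentration for full growth arrest is given as TGI.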

Legend:
Test in all cases: NCI tumour cell line growth inhibition, 48 h
[1] = tested on: HS 578T breast
[2] = tested on: IGROV1 ovarian
[3] = tested on: NCI-H226 lung
[4] = tested on: OVCAR-8 ovarian
[5] = tested on: A549 NSCLC
[6] = tested on: KM12 colon
[7] = tested on: SK-MEL-5 melanoma
[8] = tested on: CAKI-1 renal
[9] = tested on: 786-0 renal
[10] = tested on: NCI-H460 lung
[11] = tested on: UACC-62 melanoma
[12] = tested on: TK-10 renal
[13] = tested on: MCF7 breast
[14] = tested on: BT-549 breast
[15] = tested on: HCC-2998 colon
[16] = tested on: SF-295 CNS
[17] = tested on: SR leukemia
[18] = tested on: U251 CNS
[19] = tested on: LOX IMVI melanoma
[20] = tested on: SK-MEL-28 melanoma
[21] = tested on: HT29 colon
[22] = tested on: M14 melanoma
[23] = tested on: SN12C renal
[24] = tested on: NCI/ADR-RES ovarian
[25] = tested on: UO-31 renal
[26] = tested on: DU-145 prostate
[27] = tested on: SF-268 CNS
[28] = tested on: MDA-MB-231 breast
[29] = tested on: A498 renal
[30] = tested on: COLO 205 colon
[31] = tested on: OVCAR-4 ovarian
[32] = tested on: CCRF-CEM leukemia
[33] = tested on: HOP-62 NSCLC
[34] = tested on: EKVX NSCLC
[35] = tested on: HOP-92 NSCLC
[36] = tested on: MALME-3M melanoma
[37] = tested on: HCT-15 colon
[38] = tested on: PC-3 prostate
[39] = tested on: SW-620 colon
[40] = tested on: SK-MEL-2 melanoma
[41] = tested on: OVCAR-3 ovarian
[42] = tested on: UACC-257 melanoma
[43] = tested on: NCI-H23 lung
[44] = tested on: MDA-N
[45] = tested on: RPMI-8226 leukemia
[46] = tested on: ACHN renal
[47] = tested on: SNB-19 CNS
[48] = tested on: T-47D breast
[49] = tested on: K-562 leukemia
[50] = tested on: SK-OV-3 ovarian
[51] = tested on: MDA-MB-435
[52] = tested on: SNB-75 CNS
[53] = tested on: RXF 393 renal
[54] = tested on: HCT-116 colon
[55] = tested on: OVCAR-5 ovarian
[56] = tested on: MOLT-4 leukemia
[57] = tested on: NCI-H522 lung
[58] = tested on: SF-539 CNS

S=C(NCCc1ccccn1)c1nc[nH]c1C(=S)NCCc1ccccn1
TGI [1]: 68.1 µM
TGI [2]: > 100 µM
TGI [3]: > 100 µM
TGI [4]: 82.4 µM
TGI [5]: > 100 µM
TGI [6]: > 100 µM
TGI [7]: > 100 µM
TGI [8]: > 100 µM
TGI [9]: > 100 µM
TGI [10]: 64.6 µM
TGI [11]: 56.2 µM
TGI [12]: > 100 µM
TGI [13]: > 100 µM
TGI [14]: > 100 µM
TGI [15]: > 100 µM
TGI [16]: > 100 µM
TGI [17]: > 100 µM
TGI [18]: > 100 µM
TGI [19]: 45.5 µM
TGI [20]: > 100 µM
TGI [21]: > 100 µM
TGI [22]: > 100 µM
TGI [23]: > 100 µM
TGI [24]: 65.1 µM
TGI [25]: > 100 µM
TGI [26]: > 100 µM
TGI [27]: > 100 µM
TGI [28]: > 100 µM
TGI [29]: > 100 µM
TGI [30]: > 100 µM
TGI [31]: > 100 µM
TGI [32]: 81.1 µM
TGI [33]: > 100 µM
TGI [34]: > 100 µM
TGI [35]: > 100 µM
TGI [36]: > 100 µM
TGI [37]: > 100 µM
TGI [38]: > 100 µM
TGI [39]: > 100 µM
TGI [40]: > 100 µM
TGI [41]: > 100 µM
TGI [42]: > 100 µM
TGI [43]: > 100 µM
TGI [44]: > 100 µM
TGI [45]: > 100 µM
TGI [46]: > 100 µM
TGI [47]: > 100 µM
TGI [48]: 60.6 µM
TGI [49]: > 100 µM
TGI [50]: > 100 µM
TGI [51]: > 100 µM
TGI [52]: 83.3 µM
TGI [53]: 87.9 µM
TGI [54]: > 100 µM
TGI [55]: > 100 µM

COC(=O)CCC1(C)C2CCC1/C(=N/O)C2 (configuration not stated)
TGI [1]: > 100 µM
TGI [2]: > 100 µM
TGI [3]: > 100 µM
TGI [4]: > 100 µM
TGI [5]: > 100 µM
TGI [6]: > 100 µM
TGI [7]: > 100 µM
TGI [8]: > 100 µM
TGI [9]: > 100 µM
TGI [11]: > 100 µM
TGI [12]: > 100 µM
TGI [13]: > 100 µM
TGI [14]: > 100 µM
TGI [15]: > 100 µM
TGI [16]: > 100 µM
TGI [17]: > 100 µM
TGI [18]: > 100 µM
TGI [20]: > 100 µM
TGI [21]: > 100 µM
TGI [22]: > 100 µM
TGI [23]: > 100 µM
TGI [24]: > 100 µM
TGI [25]: > 100 µM
TGI [26]: > 100 µM
TGI [27]: > 100 µM
TGI [28]: > 100 µM
TGI [56]: > 100 µM
TGI [29]: > 100 µM
TGI [30]: > 100 µM
TGI [31]: > 100 µM
TGI [57]: > 100 µM
TGI [32]: > 100 µM
TGI [33]: > 100 µM
TGI [34]: > 100 µM
TGI [36]: > 100 µM
TGI [37]: > 100 µM
TGI [38]: > 100 µM
TGI [39]: > 100 µM
TGI [40]: > 100 µM
TGI [41]: > 100 µM
TGI [42]: > 100 µM
TGI [43]: > 100 µM
TGI [44]: > 100 µM
TGI [45]: > 100 µM
TGI [46]: > 100 µM
TGI [47]: > 100 µM
TGI [48]: > 100 µM
TGI [49]: > 100 µM
TGI [50]: > 100 µM
TGI [51]: > 100 µM
TGI [52]: > 100 µM
TGI [53]: > 100 µM
TGI [54]: > 100 µM
TGI [55]: > 100 µM

CN(C)CCNC(=O)c1cccc2c(NC(CCCN=C(N)N)C(=O)O)c3ccccc3[n+](C)c12 (configuration not stated)
TGI [1]: > 100 µM
TGI [2]: > 100 µM
TGI [3]: 94.5 µM
TGI [4]: > 100 µM
TGI [5]: > 100 µM
TGI [6]: > 100 µM
TGI [7]: > 100 µM
TGI [9]: > 100 µM
TGI [10]: > 100 µM
TGI [11]: > 100 µM
TGI [12]: > 100 µM
TGI [13]: > 100 µM
TGI [14]: > 100 µM
TGI [15]: > 100 µM
TGI [16]: > 100 µM
TGI [17]: > 100 µM
TGI [18]: > 100 µM
TGI [19]: > 100 µM
TGI [20]: > 100 µM
TGI [21]: > 100 µM
TGI [22]: > 100 µM
TGI [23]: > 100 µM
TGI [24]: 80.9 µM
TGI [25]: > 100 µM
TGI [26]: > 100 µM
TGI [27]: 92.6 µM
TGI [28]: > 100 µM
TGI [56]: > 100 µM
TGI [29]: > 100 µM
TGI [30]: > 100 µM
TGI [31]: > 100 µM
TGI [33]: > 100 µM
TGI [34]: > 100 µM
TGI [36]: > 100 µM
TGI [37]: > 100 µM
TGI [38]: > 100 µM
TGI [39]: > 100 µM
TGI [40]: > 100 µM
TGI [41]: > 100 µM
TGI [42]: > 100 µM
TGI [43]: > 100 µM
TGI [44]: > 100 µM
TGI [45]: > 100 µM
TGI [46]: > 100 µM
TGI [47]: > 100 µM
TGI [48]: > 100 µM
TGI [49]: > 100 µM
TGI [58]: > 100 µM
TGI [50]: > 100 µM
TGI [51]: > 100 µM
TGI [52]: > 100 µM
TGI [54]: > 100 µM
TGI [55]: > 100 µM
